Like-named read-outs stand apart in the source and are kept apart here.
What was measured:
NCI-H23 cells = test: Anti-proliferation assay (MTS/PMS, 72 h); assay type: cell-based; details: Homo sapiens, non-small cell lung cancer
Experimental: Cells were grown to confluence and seeded at 2000 cells/well/0.1 mL in a 96-well plate and placed back in the incubator for 24 h. Compounds or vehicle were administered at the desired concentrations (1% DMSO final concentration) and incubated for 72 h. The % viable cells was determined using the MTS/PMS cell proliferation kit (Promega) per the manufacturer's instructions. Cells treated with vehicle were normalized to 100% proliferation and values adjusted accordingly.

SkBr3 = test: Anti-proliferation activity; assay type: cell-based; details: Homo sapiens, SK-BR-3
Hsp90β = Hsp90β (Homo sapiens (Human), UniProt P08238); test: Fluorescence polarization assay (FITC-GDA tracer displacement); assay type: binding; details: for Selectivity: Hsp90β over Hsp90α
Sequence of Hsp90β (P08238 whole entry): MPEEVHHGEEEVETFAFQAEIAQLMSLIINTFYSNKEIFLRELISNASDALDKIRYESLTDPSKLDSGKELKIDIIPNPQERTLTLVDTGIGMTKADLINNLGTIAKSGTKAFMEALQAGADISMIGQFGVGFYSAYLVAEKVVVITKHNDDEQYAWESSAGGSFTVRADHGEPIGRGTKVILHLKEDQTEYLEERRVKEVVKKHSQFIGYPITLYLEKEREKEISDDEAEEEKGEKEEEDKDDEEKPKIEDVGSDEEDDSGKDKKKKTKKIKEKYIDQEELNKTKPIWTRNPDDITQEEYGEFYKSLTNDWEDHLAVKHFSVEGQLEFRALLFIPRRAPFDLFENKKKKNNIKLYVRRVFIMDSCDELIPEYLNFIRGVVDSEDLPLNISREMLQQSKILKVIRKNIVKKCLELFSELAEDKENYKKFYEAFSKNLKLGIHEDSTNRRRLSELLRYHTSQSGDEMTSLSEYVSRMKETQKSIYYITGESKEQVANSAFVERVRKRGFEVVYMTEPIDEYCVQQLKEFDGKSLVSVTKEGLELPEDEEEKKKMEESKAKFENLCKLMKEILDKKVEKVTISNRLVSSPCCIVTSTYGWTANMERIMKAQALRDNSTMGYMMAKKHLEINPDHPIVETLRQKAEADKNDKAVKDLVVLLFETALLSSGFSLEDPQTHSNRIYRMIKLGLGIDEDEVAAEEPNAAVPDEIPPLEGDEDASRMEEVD
Experimental: (§1) Florescence Polarization.
(§2) Assay was performed in 96-well format in black, flat bottom plates (Santa Cruz Biotechnology) with a final volume of 100 μL. […] Compounds were tested in triplicate wells (1% DMSO final concentration). For each plate, wells containing buffer only (background), tracer in buffer only (low polarization control), and protein and tracer in buffer with 1% DMSO (highpolarization control) were included. Plates were incubated at 4° C. with rocking for 24 h. […] Polarization values were correlated to % tracer bound and compound concentrations. The concentration at which the tracer was 50% displaced by the inhibitor was determined using Graphpad Prism.

Grp94 = test: as above; assay type: binding
Experimental: as §1, §2

Hsp90α = Hsp90α (Homo sapiens (Human), UniProt P07900); test: as above; assay type: binding
Experimental: as §1, §2

MCF-7 = test: Anti-proliferation activity; assay type: cell-based; details: Homo sapiens, MCF7
[1] = fluorescence polarization, read-out: Kd Hsp90β

| Structure (SMILES) | Kd (Hsp90β; [1]) | Kd (Hsp90α; fluorescence polarization) | also measured |
| --- | --- | --- | --- |
| O=C(c1cc(Br)c2cn[nH]c2c1O)N1Cc2ccccc2C1 |  |  | IC50 (NCI-H23 cells): 13.4 µM; IC50 (SkBr3): 23.6 µM |
| CC(C)c1cc(C(=O)N2Cc3ccccc3C2)c(O)cc1CC#N [Compound 2, 2-(5-Hydroxy-4-(isoindoline-2-carbonyl)-2-isopropylphenyl)acetonitrile] | 0.97 µM |  | selectivity for Hsp90β over Hsp90α (Hsp90β): ~2.5 fold |
| CC(C)c1cc(C(=O)N2Cc3ccccc3C2)c(O)c(CO)c1O [KUNB14, (2,4-Dihydroxy-3-(hydroxymethyl)-5-isopropylphenyl)(isoindolin-2-yl)methanone] | 4.27 µM |  |  |
| CC(C)c1cc(C(=O)N2Cc3ccc(F)cc3C2)c2oncc2c1O [KUNB31b, (5-fluoroisoindolin-2-yl)(4-hydroxy-5-isopropylbenzo[d]isoxazol-7-yl)methanone] |  |  | selectivity for Hsp90β over Grp94 (Grp94): ~50 fold; selectivity for Hsp90β over Hsp90α (Hsp90β): ~50 fold |
| CC(C)c1cc(C(=O)N2Cc3ccccc3C2)c(O)cc1CO [OH] | 1.97 ± 0.07 µM | 4.21 ± 0.62 µM |  |
| COCc1cc(O)c(C(=O)N2Cc3ccccc3C2)cc1C(C)C [OMe] | > 50 µM | > 50 µM |  |
| CC(C)c1cc(C(=O)N2Cc3ccccc3C2)c(O)c(CO)c1O [drawing 45] |  |  | IC50 (NCI-H23 cells): 3.9 ± 0.33 µM; IC50 (MCF-7): 13.7 ± 1.46 µM; IC50 (SkBr3): 9.13 ± 1.03 µM |
| CC(C)c1cc(C(=O)N2Cc3ccccc3C2)c(O)c2c1CNC2=O [KUNB25] | 0.33 µM | ≥ 10 µM | Selectivity (Hsp90β): ≥30 |
| CC(C)c1cc(C(=O)N2Cc3ccccc3C2)c(O)c2[nH]ncc12 |  |  | IC50 (NCI-H23 cells): 13.7 µM; IC50 (MCF-7): 19.1 µM; IC50 (SkBr3): 29.7 µM |
| CC(C)c1cc(C(=O)N2Cc3ccccc3C2)c(O)cc1CC#N [CN] |  | 2.28 ± 0.12 µM |  |
| CCC1Cc2c(C(C)C)cc(C(=O)N3Cc4ccccc4C3)c(O)c2C1=O (stereo not drawn) [KUNB23] | 0.58 µM | ≥ 10 µM | Selectivity (Hsp90β): ≥17 |
| CC1Cc2c(C(C)C)cc(C(=O)N3Cc4ccccc4C3)c(O)c2C1=O (stereo not drawn) [KUNB28] | 0.295 µM | ≥ 10 µM | Selectivity (Hsp90β): ≥34 |
| CC(C)c1cc(C(=O)N2Cc3ccccc3C2)c(O)c2cn[nH]c12 [KUNB18] | 3.71 µM | 82.5 µM | Selectivity (Hsp90β): 22 |
| CC(C)c1cc(C(=O)N2Cc3ccccc3C2)c(O)cc1CBr [Br] | 0.73 ± 0.11 µM | 4.98 ± 0.97 µM |  |
| CC(C)c1cc(C(=O)N2Cc3ccccc3C2)c(O)c(C=O)c1O [KUNB1, 2,6-Dihydroxy-3-(isoindoline-2-carbonyl)-5-isopropylbenzaldehyde] | ≥ 100 µM |  |  |
| CCN1Cc2c(C(C)C)cc(C(=O)N3Cc4ccccc4C3)c(O)c2C1=O [KUNB26] | 0.53 µM | ≥ 10 µM | Selectivity (Hsp90β): ≥19 |
| CC(C)c1cc(C(=O)N2Cc3ccccc3C2)c(O)cc1C=O [Compound 4, 5-Hydroxy-4-(isoindoline-2-carbonyl)-2-isopropylbenzaldehyde] |  |  | Kd (Hsp90α): 1.55 µM |
| COCOc1c(C(C)C)cc(C(=O)N2Cc3ccccc3C2)c(O)c1CCO [KUNB7, (2-Hydroxy-3-(2-hydroxyethyl)-5-isopropyl-4-(methoxymethoxy)phenyl) (isoindolin-2-yl)methanone] |  |  | Kd (Hsp90β): ≥ 100 µM |
| CC(C)c1cc(C(=O)N2Cc3ccccc3C2)c(O)c2c1C1C=NNC1O2 (stereo not drawn) [KUNB17] | 0.72 µM | ≥ 10 µM | Selectivity (Hsp90β): ≥14 |

| Structure (SMILES) | Kd (Hsp90β; [1]) | Kd (Hsp90α; fluorescence polarization) | also measured |
| --- | --- | --- | --- |
| CC(C)c1cc(C(=O)N2Cc3ccccc3C2)c(O)cc1N [NH2] | 0.71 µM | 0.46 ± 0.22 µM |  |
| CC(C)c1cc(C(=O)N2Cc3ccccc3C2)c(O)c2cnoc12 |  |  | IC50 (MCF-7): 28.3 ± 1.47 µM; IC50 (SkBr3): 38.2 ± 2.75 µM |
| CC(C)c1cc(C(=O)N2Cc3ccc(F)cc3C2)c(O)c2cnoc12 |  |  | IC50 (NCI-H23 cells): 5.76 µM; IC50 (MCF-7): 16.6 µM |
| CC(C)c1cc(C(=O)N2Cc3ccccc3C2)c(O)cc1CCl [Cl] | 25.2 ± 1.45 µM | > 100 µM |  |
| C=CCc1c(O)c(C(=O)N2Cc3ccccc3C2)cc(C(C)C)c1OCOC [KUNB6, (3-Allyl-2-hydroxy-5-isopropyl-4-(methoxymethoxy)phenyl)(isoindolin-2-yl)methanone] |  |  | Kd (Hsp90β): ≥ 100 µM |
| CC(C)c1cc(C(=O)N2Cc3ccccc3C2)c(O)cc1C=O [CHO] |  |  | Kd (Hsp90α): 1.21 ± 0.12 µM |
| CCCC1Cc2c(C(C)C)cc(C(=O)N3Cc4ccccc4C3)c(O)c2C1=O (stereo not drawn) [KUNB24] | 2.7 µM | ≥ 100 µM | Selectivity (Hsp90β): ≥37 |
| COCc1cc(O)c(C(=O)N2Cc3ccccc3C2)cc1C(C)C [Compound 3, (2-Hydroxy-5-isopropyl-4-(methoxymethyl)phenyl)(isoindolin-2-yl)methanone] |  |  | binding to Hsp90α (Hsp90α; at 10 μM): did not bind; binding to Hsp90β (Hsp90β; at 10 μM): did not bind |
| C=Cc1c(O)c(C(=O)N2Cc3ccccc3C2)cc(C(C)C)c1O [KUNB2, (2,4-Dihydroxy-5-isopropyl-3-vinylphenyl)(isoindolin-2-yl)methanone] | 5.24 µM |  |  |
| CCc1cc(O)c(C(=O)N2Cc3ccccc3C2)cc1C(C)C [CH3] | > 50 µM | > 50 µM |  |
| CC(C)c1cc(C(=O)N2Cc3ccccc3C2)c(O)c2nc[nH]c12 [KUNB19] | 6.3 µM | ≥ 100 µM | Selectivity (Hsp90β): 1.6 |
| CC(C)c1ccc(O)c(C(=O)N2Cc3ccccc3C2)c1 [Compound 1] | 1.63 µM | 3.21 µM | selectivity for Hsp90β over Hsp90α (Hsp90β): ~2 fold |
| CCCc1c(O)c(C(=O)N2Cc3ccccc3C2)cc(C(C)C)c1OCOC [KUNB5, (2-Hydroxy-5-isopropyl-4-(methoxymethoxy)-3-propylphenyl)(isoindolin-2-yl)methanone] |  |  | Kd (Hsp90β): 6.3 µM |
| CC(C)c1cc(C(=O)N2Cc3ccccc3C2)c(O)c(CN)c1O [KUNB4, (3-(Aminomethyl)-2,4-dihydroxy-5-isopropylphenyl)(isoindolin-2-yl)methanone] |  |  | Kd (Hsp90β): ≥ 100 µM |
| CC(C)c1cc(C(=O)N2Cc3ccc(F)cc3C2)c(O)c(CO)c1O |  |  | IC50 (NCI-H23 cells): 2.13 ± 0.7 µM; IC50 (MCF-7): 13.2 µM |
| CCc1c(O)c(C(=O)N2Cc3ccccc3C2)cc(C(C)C)c1O [KUNB3, (3-Ethyl-2,4-dihydroxy-5-isopropylphenyl)(isoindolin-2-yl)methanone] | 3.31 µM |  |  |
| CNCc1cc(O)c(C(=O)N2Cc3ccccc3C2)cc1C(C)C [NHCH3] | 23.2 ± 1.07 µM | > 100 µM |  |
| CC(C)c1cc(C(=O)N2Cc3ccccc3C2)c(O)c2c1CCC2=O [KUNB22] | 0.11 µM | 9.3 µM | Selectivity (Hsp90β): 85 |

— patent US10927076B2, “HSP90B N-terminal isoform-selective inhibitors” (priority 2017, dated 2021)
